Measurements taken from PubChem BioAssay (NCI).
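Cells were grown in 96-well plates and exposed to each compound for 48 hours at five concentrations; endpoints were interpolated linearly between bracketing concentrations, or set to the highest concentration if not reached. TGI: concentration producing complete growth inhibition.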 Where a SMILES comes first, the peptide text is derived from it. The star is where a group is joined. Cbz = O=C(OCc1ccccc1)*

Key:
Experiment in all cases: growth of human tumour cells (NCI), 48 h
SK-MEL-5 melanoma = system: SK-MEL-5 melanoma
SF-268 CNS = system: SF-268 CNS
MALME-3M melanoma = system: MALME-3M melanoma
SR leukemia = system: SR leukemia
MOLT-4 leukemia = system: MOLT-4 leukemia
UO-31 renal = system: UO-31 renal
HCT-116 colon = system: HCT-116 colon
ACHN renal = system: ACHN renal
RXF 393 renal = system: RXF 393 renal
OVCAR-5 ovarian = system: OVCAR-5 ovarian
K-562 leukemia = system: K-562 leukemia
HT29 colon = system: HT29 colon
TK-10 renal = system: TK-10 renal
SK-MEL-2 melanoma = system: SK-MEL-2 melanoma
NCI-H460 lung = system: NCI-H460 lung
OVCAR-4 ovarian = system: OVCAR-4 ovarian
HOP-62 NSCLC = system: HOP-62 NSCLC
MDA-MB-435 = system: MDA-MB-435
SF-539 CNS = system: SF-539 CNS
NCI-H522 lung = system: NCI-H522 lung

CCOC(=O)[C@@H](NC(=O)OC(C)(C)C)[C@@H](O)C(=O)OCC
TGI (SK-MEL-5 melanoma): > 100 µM
TGI (SF-268 CNS): > 100 µM
TGI (MALME-3M melanoma): > 100 µM
TGI (SR leukemia): > 100 µM
TGI (MOLT-4 leukemia): > 100 µM
TGI (UO-31 renal): > 100 µM
TGI (HCT-116 colon): > 100 µM
TGI (ACHN renal): > 100 µM
TGI (RXF 393 renal): > 100 µM
TGI (OVCAR-5 ovarian): > 100 µM
TGI (K-562 leukemia): > 100 µM
TGI (HT29 colon): > 100 µM
TGI (TK-10 renal): > 100 µM
TGI (SK-MEL-2 melanoma): > 100 µM
TGI (NCI-H460 lung): > 100 µM
TGI (OVCAR-4 ovarian): > 100 µM
TGI (HOP-62 NSCLC): > 100 µM
TGI (MDA-MB-435): > 100 µM

CCOC(=O)C(NC(=O)c1ccccc1)(c1ccc(S(=O)(=O)Nc2onc(C)c2C)cc1)C(F)(F)F (centres undefined)
TGI (SK-MEL-5 melanoma): > 100 µM
TGI (SF-268 CNS): > 100 µM
TGI (MALME-3M melanoma): > 100 µM
TGI (SR leukemia): > 100 µM
TGI (MOLT-4 leukemia): > 100 µM
TGI (UO-31 renal): > 100 µM
TGI (SF-539 CNS): > 100 µM
TGI (HCT-116 colon): > 100 µM
TGI (ACHN renal): > 100 µM
TGI (RXF 393 renal): > 100 µM
TGI (OVCAR-5 ovarian): > 100 µM
TGI (K-562 leukemia): > 100 µM
TGI (HT29 colon): > 100 µM
TGI (TK-10 renal): > 100 µM
TGI (SK-MEL-2 melanoma): > 100 µM
TGI (NCI-H460 lung): > 100 µM
TGI (OVCAR-4 ovarian): > 100 µM
TGI (HOP-62 NSCLC): > 100 µM
TGI (MDA-MB-435): > 100 µM

COC(=O)C(CC(C)C)NC(=O)C(CCCN=C(N)N)NC(=O)OCc1ccccc1 (stereo not drawn) (Cbz-Arg-Leu-OMe; configuration not given here)
TGI (SK-MEL-5 melanoma): > 100 µM
TGI (SF-268 CNS): > 100 µM
TGI (MALME-3M melanoma): > 100 µM
TGI (SR leukemia): > 100 µM
TGI (MOLT-4 leukemia): > 100 µM
TGI (UO-31 renal): > 100 µM
TGI (HCT-116 colon): > 100 µM
TGI (ACHN renal): > 100 µM
TGI (RXF 393 renal): > 100 µM
TGI (OVCAR-5 ovarian): > 100 µM
TGI (K-562 leukemia): > 100 µM
TGI (HT29 colon): > 100 µM
TGI (TK-10 renal): > 100 µM
TGI (NCI-H522 lung): > 100 µM
TGI (NCI-H460 lung): > 100 µM
TGI (OVCAR-4 ovarian): > 100 µM
TGI (HOP-62 NSCLC): > 100 µM
TGI (MDA-MB-435): > 100 µM

CC(=O)Nn1cnc(C(=N)C#N)c1N
TGI (SK-MEL-5 melanoma): > 100 µM
TGI (SF-268 CNS): > 100 µM
TGI (MALME-3M melanoma): > 100 µM
TGI (SR leukemia): > 100 µM
TGI (MOLT-4 leukemia): > 100 µM
TGI (UO-31 renal): > 100 µM
TGI (SF-539 CNS): > 100 µM
TGI (HCT-116 colon): > 100 µM
TGI (ACHN renal): > 100 µM
TGI (OVCAR-5 ovarian): > 100 µM
TGI (K-562 leukemia): > 100 µM
TGI (HT29 colon): > 100 µM
TGI (TK-10 renal): > 100 µM
TGI (SK-MEL-2 melanoma): > 100 µM
TGI (NCI-H522 lung): > 100 µM
TGI (NCI-H460 lung): > 100 µM
TGI (OVCAR-4 ovarian): > 100 µM
TGI (HOP-62 NSCLC): > 100 µM
TGI (MDA-MB-435): > 100 µM

O=C(Nc1ccccc1)c1cc(S(=O)(=O)N2CCNC2=O)c(S)cc1Cl
TGI (SK-MEL-5 melanoma): > 100 µM
TGI (SF-268 CNS): > 100 µM
TGI (SR leukemia): > 100 µM
TGI (MOLT-4 leukemia): > 100 µM
TGI (UO-31 renal): > 100 µM
TGI (SF-539 CNS): > 100 µM
TGI (HCT-116 colon): > 100 µM
TGI (ACHN renal): > 100 µM
TGI (RXF 393 renal): > 100 µM
TGI (OVCAR-5 ovarian): > 100 µM
TGI (K-562 leukemia): > 100 µM
TGI (HT29 colon): > 100 µM
TGI (TK-10 renal): > 100 µM
TGI (SK-MEL-2 melanoma): > 100 µM
TGI (NCI-H522 lung): > 100 µM
TGI (NCI-H460 lung): > 100 µM
TGI (OVCAR-4 ovarian): > 100 µM
TGI (HOP-62 NSCLC): > 100 µM
TGI (MDA-MB-435): > 100 µM

COc1ccc2c(=O)c3c([nH]c2c1)OCC3=O
TGI (SK-MEL-5 melanoma): > 100 µM
TGI (SF-268 CNS): > 100 µM
TGI (SR leukemia): > 100 µM
TGI (MOLT-4 leukemia): > 100 µM
TGI (UO-31 renal): > 100 µM
TGI (SF-539 CNS): > 100 µM
TGI (HCT-116 colon): > 100 µM
TGI (ACHN renal): > 100 µM
TGI (RXF 393 renal): > 100 µM
TGI (K-562 leukemia): > 100 µM
TGI (HT29 colon): > 100 µM
TGI (TK-10 renal): > 100 µM
TGI (SK-MEL-2 melanoma): > 100 µM
TGI (NCI-H460 lung): > 100 µM
TGI (OVCAR-4 ovarian): > 100 µM
TGI (HOP-62 NSCLC): > 100 µM
TGI (MDA-MB-435): > 100 µM

C1=CCC[C@@H]2CN3CCCC/C=C\CCCC[C@H]4C[C@H](CN(CCCCCCCC1)C4)[C@H]2CC3
TGI (SK-MEL-5 melanoma): 16.3 µM
TGI (SF-268 CNS): 21.3 µM
TGI (MALME-3M melanoma): 17.5 µM
TGI (SR leukemia): 20.1 µM
TGI (MOLT-4 leukemia): 21.2 µM
TGI (SF-539 CNS): 14.9 µM
TGI (HCT-116 colon): 16.3 µM
TGI (ACHN renal): 17 µM
TGI (OVCAR-5 ovarian): 23.7 µM
TGI (K-562 leukemia): 24 µM
TGI (HT29 colon): 20.8 µM
TGI (TK-10 renal): 15.8 µM
TGI (SK-MEL-2 melanoma): 15.9 µM
TGI (NCI-H522 lung): 17.7 µM
TGI (NCI-H460 lung): 18.7 µM
TGI (OVCAR-4 ovarian): 26.8 µM
TGI (HOP-62 NSCLC): 15.6 µM
TGI (MDA-MB-435): 15.7 µM

Cc1ccc2nc(CN(CCO)CCO)cc(=O)n2c1
TGI (SF-268 CNS): > 100 µM
TGI (MALME-3M melanoma): > 100 µM
TGI (SR leukemia): > 100 µM
TGI (MOLT-4 leukemia): > 100 µM
TGI (UO-31 renal): > 100 µM
TGI (SF-539 CNS): > 100 µM
TGI (HCT-116 colon): > 100 µM
TGI (ACHN renal): > 100 µM
TGI (OVCAR-5 ovarian): > 100 µM
TGI (K-562 leukemia): > 100 µM
TGI (HT29 colon): > 100 µM
TGI (TK-10 renal): > 100 µM
TGI (SK-MEL-2 melanoma): > 100 µM
TGI (NCI-H522 lung): > 100 µM
TGI (NCI-H460 lung): > 100 µM
TGI (OVCAR-4 ovarian): > 100 µM
TGI (HOP-62 NSCLC): > 100 µM
TGI (MDA-MB-435): > 100 µM

CN(/N=C/c1ccc(Cl)c(Cl)c1)C1=NCCCCN1
TGI (SK-MEL-5 melanoma): 27.8 µM
TGI (SF-268 CNS): > 100 µM
TGI (MALME-3M melanoma): 32.5 µM
TGI (SR leukemia): > 100 µM
TGI (MOLT-4 leukemia): 80.9 µM
TGI (SF-539 CNS): 61.1 µM
TGI (HCT-116 colon): 79.4 µM
TGI (ACHN renal): > 100 µM
TGI (OVCAR-5 ovarian): > 100 µM
TGI (K-562 leukemia): 69.3 µM
TGI (HT29 colon): > 100 µM
TGI (TK-10 renal): > 100 µM
TGI (SK-MEL-2 melanoma): 42.1 µM
TGI (NCI-H522 lung): 33.7 µM
TGI (NCI-H460 lung): > 100 µM
TGI (OVCAR-4 ovarian): > 100 µM
TGI (HOP-62 NSCLC): 35.4 µM
TGI (MDA-MB-435): 36 µM

O=C1CCCCCCCCCCC1CN1CCOCC1 (centres undefined)
TGI (SK-MEL-5 melanoma): > 100 µM
TGI (SF-268 CNS): > 100 µM
TGI (MALME-3M melanoma): > 100 µM
TGI (SR leukemia): > 100 µM
TGI (MOLT-4 leukemia): > 100 µM
TGI (UO-31 renal): > 100 µM
TGI (SF-539 CNS): > 100 µM
TGI (HCT-116 colon): > 100 µM
TGI (ACHN renal): > 100 µM
TGI (RXF 393 renal): > 100 µM
TGI (OVCAR-5 ovarian): > 100 µM
TGI (K-562 leukemia): > 100 µM
TGI (TK-10 renal): > 100 µM
TGI (NCI-H522 lung): > 100 µM
TGI (OVCAR-4 ovarian): > 100 µM
TGI (HOP-62 NSCLC): > 100 µM
TGI (MDA-MB-435): > 100 µM

N#Cc1sc2c(c1OC(=O)c1ccc(Cl)cc1Cl)c(=O)n(-c1ccccc1)c(=S)n2-c1ccccc1
TGI (SK-MEL-5 melanoma): 34.6 µM
TGI (SF-268 CNS): > 100 µM
TGI (SR leukemia): > 100 µM
TGI (MOLT-4 leukemia): 45.9 µM
TGI (UO-31 renal): 0.424 µM
TGI (SF-539 CNS): 39.2 µM
TGI (HCT-116 colon): 39.2 µM
TGI (ACHN renal): > 100 µM
TGI (RXF 393 renal): 42 µM
TGI (OVCAR-5 ovarian): > 100 µM
TGI (K-562 leukemia): 68 µM
TGI (HT29 colon): 55 µM
TGI (TK-10 renal): 92.5 µM
TGI (NCI-H522 lung): 7.3 µM
TGI (NCI-H460 lung): > 100 µM
TGI (OVCAR-4 ovarian): 66.5 µM
TGI (HOP-62 NSCLC): 96.4 µM
TGI (MDA-MB-435): 46.2 µM
